Assay results reported in patent publication US7910751B2, “Heterocyclidene acetamide derivative” (Mochida Pharmaceutical Co., Ltd., priority 2005, dated 2011).

target: T1, human TRPV1 (Homo sapiens, UniProt Q8NER1); test: Measurement of capsaicin-induced Ca influx in human TRPV1 transformed CHO cell line using FDSS-6000; assay type: cell-based; conditions: concentration at which the capsaicin concentration-reaction curve is shifted two times to the right, human TRPV1 transformed CHO cells
T1 construct: expressed in transfected cells; host or cells: CHO-K1
T1 sequence (Q8NER1 whole entry): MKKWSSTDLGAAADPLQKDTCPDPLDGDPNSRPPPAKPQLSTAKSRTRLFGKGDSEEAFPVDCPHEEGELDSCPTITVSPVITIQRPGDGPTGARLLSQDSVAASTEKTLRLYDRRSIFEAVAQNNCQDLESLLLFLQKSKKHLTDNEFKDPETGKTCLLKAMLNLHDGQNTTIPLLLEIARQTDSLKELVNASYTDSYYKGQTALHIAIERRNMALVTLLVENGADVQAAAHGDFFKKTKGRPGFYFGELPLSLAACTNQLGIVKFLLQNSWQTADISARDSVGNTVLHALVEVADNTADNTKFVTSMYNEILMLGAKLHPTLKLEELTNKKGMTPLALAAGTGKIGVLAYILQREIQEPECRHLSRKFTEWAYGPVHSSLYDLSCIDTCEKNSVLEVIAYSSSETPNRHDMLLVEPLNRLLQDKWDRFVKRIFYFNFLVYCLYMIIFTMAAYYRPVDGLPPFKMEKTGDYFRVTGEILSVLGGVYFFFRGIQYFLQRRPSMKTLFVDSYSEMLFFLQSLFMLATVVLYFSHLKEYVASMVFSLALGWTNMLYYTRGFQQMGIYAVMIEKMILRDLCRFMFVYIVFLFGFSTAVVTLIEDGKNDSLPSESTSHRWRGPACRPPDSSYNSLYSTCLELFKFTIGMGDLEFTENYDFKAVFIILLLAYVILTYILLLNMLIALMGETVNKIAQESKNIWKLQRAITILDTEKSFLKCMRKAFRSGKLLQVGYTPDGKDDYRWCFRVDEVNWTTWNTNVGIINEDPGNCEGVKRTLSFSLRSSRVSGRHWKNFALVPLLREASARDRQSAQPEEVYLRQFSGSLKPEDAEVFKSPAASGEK

| Compound | A2 VALUE |
| --- | --- |
| O=C(/C=C1\CCCOc2cc(C(F)(F)F)ccc21)Nc1ccc2ccc(=O)[nH]c2c1 [Example 134, (E)-2-(8-trifluoromethyl-3,4-dihydrobenzo[b]oxepin-5(2H)-ylidene)-N-(2-quinolon-7-yl)acetamide] | A (compounds of the present invention having an A2 value of less than 100 nM are represented by A) |
| CN1CCCc2ccc(NC(=O)/C=C3\CCCOc4cc(C(F)(F)F)ccc43)cc21 [Example 17, (E)-2-(8-trifluoromethyl-3,4-dihydrobenzo[b]oxepin-5(2H)-ylidene)-N-(1,2,3,4-tetrahydro-1-methylquinolin-7-yl)acetamide] | A (compounds of the present invention having an A2 value of less than 100 nM are represented by A) |
| O=C(/C=C1\CCN(C(=O)C2CCCC2)c2cc(C(F)(F)F)ccc21)Nc1cccc2c1CC(O)CC2 (centres unmarked) [Example 82, (E)-2-(1-cyclopentanecarbonyl-7-trifluoromethyl-2,3-dihydroquinolin-4(1H)-ylidene)-N-(7-hydroxy-5,6,7,8-tetrahydronaphthalen-1-yl)acetamide] | A (compounds of the present invention having an A2 value of less than 100 nM are represented by A) |
| O=C(/C=C1\CCN(C(=O)c2cccnc2)c2cc(C(F)(F)F)ccc21)Nc1ccc2cccnc2c1 [Example 55, (E)-2-(7-trifluoromethyl-2,3-dihydro-1-nicotinoylquinolin-4(1H)-ylidene)-N-(quinolin-7-yl)acetamide] | A (compounds of the present invention having an A2 value of less than 100 nM are represented by A) |
| O=C(/C=C1\CCCOc2cc(C(F)(F)F)ccc21)Nc1ccc2c(c1)C(=O)OC2 [Example 24, (E)-2-(8-trifluoromethyl-3,4-dihydrobenzo[b]oxepin-5(2H)-ylidene)-N-(1,3-dihydro-1-oxoisobenzofuran-6-yl)acetamide] | A (compounds of the present invention having an A2 value of less than 100 nM are represented by A) |
| CC1(C)C/C(=C\C(=O)Nc2cccc3c2CC(O)CN3)c2ccc(C(F)(F)F)cc2O1 (centres unmarked) [Example 244, (E)-2-(7-trifluoromethyl-2,2-dimethylchroman-4-ylidene)-N-(3-hydroxy-1,2,3,4-tetrahydroquinolin-5-yl)acetamide] | A (compounds of the present invention having an A2 value of less than 100 nM are represented by A) |
| CCCCC(=O)N1CCC/C(=C\C(=O)Nc2cccc3c2CC(O)CC3)c2ccc(C(F)(F)F)cc21 (centres unmarked) [Example 190, (E)-2-(8-trifluoromethyl-1-pentanoyl-1,2,3,4-tetrahydro-5H-benzo[b]azepin-5-ylidene)-N-(7-hydroxy-5,6,7,8-tetrahydronaphthalen-1-yl)acetamide] | A (compounds of the present invention having an A2 value of less than 100 nM are represented by A) |
| O=C(/C=C1\CCN(C(=O)Cc2ccccc2)c2cc(C(F)(F)F)ccc21)Nc1cccc2c1CC(O)CC2 (centres unmarked) [Example 94, (E)-2-(1-phenylacetyl-7-trifluoromethyl-2,3-dihydroquinolin-4(1H)-ylidene)-N-(7-hydroxy-5,6,7,8-tetrahydronaphthalen-1-yl)acetamide] | A (compounds of the present invention having an A2 value of less than 100 nM are represented by A) |
| CC1(C)C/C(=C\C(=O)Nc2cccc3c2CC(O)CC3)c2ccc(C(F)(F)F)cc2O1 (centres unmarked) [Example 242, (E)-2-(7-trifluoromethyl-2,2-dimethylchroman-4-ylidene)-N-(7-hydroxy-5,6,7,8-tetrahydronaphthalen-1-yl)acetamide] | A (compounds of the present invention having an A2 value of less than 100 nM are represented by A) |
| CC(=O)N1CCC/C(=C\C(=O)Nc2ccc3cccnc3c2)c2ccc(C(F)(F)F)cc21 [Example 195, (E)-2-(1-acetyl-8-trifluoromethyl-1,2,3,4-tetrahydro-5H-benzo[b]azepin-5-ylidene)-N-(quinolin-7-yl)acetamide] | B (compounds having an A2 value of 100 nM or more are represented by B) |
| O=C(/C=C1\CCOc2cc(C(F)(F)F)ccc21)NC1CCc2cccnc2C1 (centres unmarked) [Example 6, (E)-2-(7-trifluoromethyl-chroman-4-ylidene)-N-(5,6,7,8-tetrahydroquinolin-7-yl)acetamide] | A (compounds of the present invention having an A2 value of less than 100 nM are represented by A) |
| O=C(/C=C1\CCCOc2cc(C(F)(F)F)ccc21)NCc1ccc2c(c1)CCO2 [Example 35, (E)-2-(8-trifluoromethyl-3,4-dihydrobenzo[b]oxepin-5(2H)-ylidene)-N-((2,3-dihydrobenzofuran-5-yl)methyl)acetamide] | B (compounds having an A2 value of 100 nM or more are represented by B) |
| CC(NC(=O)/C=C1\CCCOc2cc(C(F)(F)F)ccc21)c1ccc2c(c1)OCCO2 (centres unmarked) [Example 33, (E)-2-(8-trifluoromethyl-3,4-dihydrobenzo[b]oxepin-5(2H)-ylidene)-N-(1-(2,3-dihydrobenzo[b][1,4]dioxin-6-yl)ethyl)acetamide] | B (compounds having an A2 value of 100 nM or more are represented by B) |
| CC(C)(F)C(=O)N1CC/C(=C\C(=O)Nc2cccc3c2CC(O)CC3)c2ccc(C(F)(F)F)cc21 (centres unmarked) [Example 96, (E)-2-(1-(2-fluoro-2-methylpropanoyl)-7-trifluoromethyl-2,3-dihydroquinolin-4(1H)-ylidene)-N-(7-hydroxy-5,6,7,8-tetrahydronaphthalen-1-yl)acetamide] | A (compounds of the present invention having an A2 value of less than 100 nM are represented by A) |
| O=C(/C=C1\CCCOc2cc(C(F)(F)F)ccc21)Nc1ccc2nccnc2c1 [Example 12, (E)-2-(8-trifluoromethyl-3,4-dihydrobenzo[b]oxepin-5(2H)-ylidene)-N-(quinoxalin-6-yl)acetamide] | A (compounds of the present invention having an A2 value of less than 100 nM are represented by A) |
| O=C(/C=C1\CCOc2cc(C(F)(F)F)ccc21)Nc1ccc2sc(CO)nc2c1 [Example 216, (E)-2-(7-trifluoromethyl-chroman-4-ylidene)-N-(2-hydroxymethyl-1,3-benzothiazolo-5-yl)acetamide] | A (compounds of the present invention having an A2 value of less than 100 nM are represented by A) |
| CC(C)(C)c1ccc2c(c1)OCC/C2=C\C(=O)NC1CCc2cccnc2C1 (centres unmarked) [Example 3, (E)-2-(7-tert-butyl-chroman-4-ylidene)-N-(5,6,7,8-tetrahydroquinolin-7-yl)acetamide] | A (compounds of the present invention having an A2 value of less than 100 nM are represented by A) |
| O=C(/C=C1\CCCOc2cc(C(F)(F)F)ccc21)Nc1ccc2[nH]ccc2c1 [Example 138, (E)-2-(8-trifluoromethyl-3,4-dihydrobenzo[b]oxepin-5(2H)-ylidene)-N-(indol-5-yl)acetamide] | A (compounds of the present invention having an A2 value of less than 100 nM are represented by A) |
| O=C(/C=C1\CCN(C(=O)CC(F)(F)F)c2cc(C(F)(F)F)ccc21)Nc1cccc2c1CC(O)CC2 (centres unmarked) [Example 92, (E)-2-(1-(3,3,3-trifluoropropanoyl)-7-trifluoromethyl-2,3-dihydroquinolin-4(1H)-ylidene)-N-(7-hydroxy-5,6,7,8-tetrahydronaphthalen-1-yl)acetamide] | A (compounds of the present invention having an A2 value of less than 100 nM are represented by A) |
| O=C(/C=C1\CCCOc2cc(C(F)(F)F)ccc21)Nc1ccc(Oc2ccc(C(F)(F)F)cn2)cc1 [Example 27] | B (compounds having an A2 value of 100 nM or more are represented by B) |
| CCC(F)(F)C(=O)N1CC/C(=C\C(=O)Nc2cccc3c2CC(O)CC3)c2ccc(C(F)(F)F)cc21 (centres unmarked) [Example 95, (E)-2-(1-(2,2-difluorobutanoyl)-7-trifluoromethyl-2,3-dihydroquinolin-4(1H)-ylidene)-N-(7-hydroxy-5,6,7,8-tetrahydronaphthalen-1-yl)acetamide] | A (compounds of the present invention having an A2 value of less than 100 nM are represented by A) |
| O=C(/C=C1\CCCOc2cc(C(F)(F)F)ccc21)Nc1ccccc1CCO [Example 60, (E)-2-(8-trifluoromethyl-3,4-dihydrobenzo[b]oxepin-5(2H)-ylidene)-N-((2-hydroxyethyl)phenyl-1-yl)acetamide] | A (compounds of the present invention having an A2 value of less than 100 nM are represented by A) |
| O=C(/C=C1\CCN(C(=O)c2ccco2)c2cc(C(F)(F)F)ccc21)Nc1cccc2c1CC(O)CC2 (centres unmarked) [Example 111, (E)-2-(7-trifluoromethyl-2,3-dihydro-1-(2-furancarbonyl)quinolin-4(1H)-ylidene)-N-(7-hydroxy-5,6,7,8-tetrahydronaphthalen-1-yl)acetamide] | A (compounds of the present invention having an A2 value of less than 100 nM are represented by A) |
| O=C(/C=C1\CCOc2cc(Cl)ccc21)Nc1cccc2c1CC(O)CN2 (centres unmarked) [Example 209, (E)-2-(7-chloro-chroman-4-ylidene)-N-(3-hydroxy-1,2,3,4-tetrahydroquinolin-5-yl)acetamide] | A (compounds of the present invention having an A2 value of less than 100 nM are represented by A) |
| O=C(/C=C1\CCCN(C(=O)C2CCCC2)c2cc(C(F)(F)F)ccc21)Nc1ccc2cccnc2c1 [Example 193, (E)-2-(1-cyclopentanecarbonyl-8-trifluoromethyl-1,2,3,4-tetrahydro-5H-benzo[b]azepin-5-ylidene)-N-(quinolin-7-yl)acetamide] | A (compounds of the present invention having an A2 value of less than 100 nM are represented by A) |
| O=C(/C=C1\CCCOc2cc(C(F)(F)F)ccc21)Nc1cccc2cc(O)ccc12 [Example 126, (E)-N-(6-hydroxynaphthalen-1-yl)-2-(8-trifluoromethyl-3,4-dihydrobenzo[b]oxepin-5(2H)-ylidene)acetamide] | A (compounds of the present invention having an A2 value of less than 100 nM are represented by A) |
